38 molecules from patent US9328118B2, “Nitrogen-containing bicyclic aromatic heterocyclic compound” (ASTELLAS PHARMA INC., priority 2012, dated 2016) can be followed below.

Structures can show the parent of a compound that is named as a salt.

The first experiment deals with human cathepsin S (Homo sapiens (Human), UniProt P25774). Nature of the experiment: In vitro human cathepsin S inhibitory activity (VVR-AMC fluorescence). The class given is biochemical. The settings on record: human cathepsin S enzyme, substrate VVR-AMC 40 μM, pH 4.5, 37° C.; read-out: IC50 value of the human cathepsin S inhibitory activity (Data 1). As to the method: Test Example 1 Measurement of a In Vitro Human Cathepsin S Inhibitory Activity
human cathepsin S, sequence (P25774 115-331): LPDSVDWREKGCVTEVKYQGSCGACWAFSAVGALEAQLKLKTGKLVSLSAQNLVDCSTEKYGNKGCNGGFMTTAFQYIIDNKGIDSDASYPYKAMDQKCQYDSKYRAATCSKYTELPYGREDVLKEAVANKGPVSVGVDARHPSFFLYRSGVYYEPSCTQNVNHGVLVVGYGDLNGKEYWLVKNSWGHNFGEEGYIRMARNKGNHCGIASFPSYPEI
5 μL of a human cathepsin S enzyme (R&D1183-CY-010) was added to a 96-well plate so as to be 20 ng/well. […] A reaction rate at the time of not adding an enzyme in which the test compound was not added and a reaction rate at the time of adding an enzyme in which the test compound was not added were set to 100% inhibition and 0% inhibition, respectively, then, an inhibition rate at each concentration was determined, and IC50 values were calculated by a linear regression method. In the Table, Ex represents Example compound No., and Data 1 represents an IC50 value (nM) of the human cathepsin S inhibitory activity.
Consider `CCOc1ccc(-c2nc(C#N)nc3c2ccn3CC(=O)N2CCN(C)CC2)cc1C(F)(F)F` [Example 5, 4-[4-ethoxy-3-(trifluoromethyl)phenyl]-7-[2-(4-methylpiperazin-1-yl)-2-oxoethyl]-7H-pyrrolo[2,3-d]pyrimidine-2-carbonitrile], for which the IC50 (commonly the concentration that inhibits the measured activity by half) was found to be 4.2 nM.
`CN(C)C(=O)N1CCC(CCOc2ccc(-c3nc(C#N)nc4c3ncn4C)cc2C(F)(F)F)CC1` [Example 7, 4-{2-[4-(2-cyano-9-methyl-9H-purin-6-yl)-2-(trifluoromethyl)phenoxy]ethyl}-N,N-dimethylpiperidine-1-carboxamide]: the IC50 came to 6.2 nM.
As to `CN1CCN(C(=O)Cn2ccc3c(-c4ccc(OCCC5CCOCC5)c(C(F)(F)F)c4)nc(C#N)nc32)CC1` [Example 8, 7-[2-(4-methylpiperazin-1-yl)-2-oxoethyl]-4-{4-[2-(tetrahydro-2H-pyran-4-yl)ethoxy]-3-(trifluoromethyl)phenyl}-7H-pyrrolo[2,3-d]pyrimidine-2-carbonitrile monohydrochloride], the concentration for half-maximal inhibition (IC50) came out at 1.6 nM.
With `Cc1nc2c(-c3ccc(OCCC4CCNCC4)c(C(F)(F)F)c3)nc(C#N)nc2n1C` [Example 10, 8,9-dimethyl-6-{4-[2-(piperidin-4-yl)ethoxy]-3-(trifluoromethyl)phenyl}-9H-purine-2-carbonitrile monohydrochloride], the IC50 was determined as 2.7 nM.
In the case of `CCN1CCC(CCOc2ccc(-c3nc(C#N)nc4c3nc(C)n4C)cc2C(F)(F)F)CC1` [Example 11, 6-{4-[2-(1-ethylpiperidin-4-yl)ethoxy]-3-(trifluoromethyl)phenyl}-8,9-dimethyl-9H-purine-2-carbonitrile], the half-inhibitory concentration (IC50) came out at 1.9 nM.
`CCN1CCCC(CCOc2ncc(-c3nc(C#N)nc4c3ccn4C)cc2C(F)(F)F)C1` (centres unmarked) [Example 12, 4-{6-[2-(1-ethylpiperidin-3-yl)ethoxy]-5-(trifluoromethyl)pyridin-3-yl}-7-methyl-7H-pyrrolo[2,3-d]pyrimidine-2-carbonitrile monohydrochloride]: the IC50 was determined as 2.7 nM.
As for `CCN1CCC(CCOc2ccc(-c3nc(C#N)nc4c3ccn4CCOC)cc2C(F)(F)F)CC1` [Example 13, 4-{4-[2-(1-ethylpiperidin-4-yl)ethoxy]-3-(trifluoromethyl)phenyl}-7-(2-methoxyethyl)-7H-pyrrolo[2,3-d]pyrimidine-2-carbonitrile monohydrochloride], the IC50 came to 2.7 nM.
Consider `Cn1ccc2c(-c3ccc(OCCC4CCN(C5CC5)CC4)c(C(F)(F)F)c3)nc(C#N)nc21` [Example 14, 4-{4-[2-(1-cyclopropylpiperidin-4-yl)ethoxy]-3-(trifluoromethyl)phenyl}-7-methyl-7H-pyrrolo[2,3-d]pyrimidine-2-carbonitrile], for which the IC50 turned out to be 2.3 nM.
On to `CN(C)C(=O)CN1CCC(CCOc2ccc(-c3nc(C#N)nc4c3ccn4CC3CCCO3)cc2C(F)(F)F)CC1` (centres unmarked) [Example 16, 2-[4-(2-{4-[2-cyano-7-(tetrahydrofuran-2-ylmethyl)-7H-pyrrolo[2,3-d]pyrimidin-4-yl]-2-(trifluoromethyl)phenoxy}ethyl)piperidin-1-yl]-N,N-dimethylacetamide monohydrochloride], for which the half-inhibitory concentration (IC50) amounted to 4.7 nM.
Still for that read-out and setting: the result for `Cn1ccc2c(-c3ccc(OCCC4C5CCC4CNC5)c(C(F)(F)F)c3)nc(C#N)nc21` (centres unmarked) [Example 38] reads 4.5 nM; that for `CN1CCC(CCOc2ncc(-c3nc(C#N)nc4c3ncn4C)cc2C(F)(F)F)CC1` [Example 136, 9-methyl-6-{6-[2-(1-methylpiperidin-4-yl)ethoxy]-5-(trifluoromethyl)pyridin-3-yl}-9H-purine-2-carbonitrile], 1.5 nM.
For `Cn1cnc2c(-c3cnc(OCCC4CCN(C(=O)[C@@H]5CCCN5)CC4)c(C(F)(F)F)c3)nc(C#N)nc21` [Example 138], the IC50 amounted to 2.7 nM.
Take `CC(C)N1CCC(CCOc2ncc(-c3nc(C#N)nc4c3ncn4C)cc2C(F)(F)F)CC1` [Example 139]: the half-inhibitory concentration (IC50) stood at 2.1 nM.
For the molecule `Cn1cnc2c(-c3cnc(OCCC4CCN5CCCC5C4)c(C(F)(F)F)c3)nc(C#N)nc21` (centres unmarked) [Example 142], the IC50 was 1.5 nM.
As for `CN1CCC[C@@H]1C(=O)N1CC[C@H](OCCOc2ncc(-c3nc(C#N)nc4c3ccn4C)cc2C(F)(F)F)C1` [Example 143, 7-methyl-4-[6-(2-{[(3S)-1-(1-methyl-D-prolyl)pyrrolidin-3-yl]oxy}ethoxy)-5-(trifluoromethyl)pyridin-3-yl]-7H-pyrrolo[2,3-d]pyrimidine-2-carbonitrile monofumarate], the half-maximal inhibitory concentration (IC50) was determined as 1.5 nM.
Consider `CC(C)CN1CCC(CCOc2ncc(-c3nc(C#N)nc4c3ncn4C)cc2C(F)(F)F)CC1` [Example 144], for which the half-inhibitory concentration (IC50) stood at 2.8 nM.
`Cn1cnc2c(-c3cnc(OCCC4CCN(C(CF)CF)CC4)c(C(F)(F)F)c3)nc(C#N)nc21` [Example 145]: the half-maximal inhibitory concentration (IC50) is 1 nM.
In the case of `Cn1cnc2c(-c3cnc(OCCC4CCN(C(C)(C)C)CC4)c(C(F)(F)F)c3)nc(C#N)nc21` [Example 146], the IC50 is 3.2 nM.
For the molecule `Cn1ccc2c(-c3cnc(OCCOC4CCNCC4)c(C(F)(F)F)c3)nc(C#N)nc21` [Example 147], the 50% inhibitory concentration (IC50) is 2.4 nM.
Consider `Cn1ccc2c(-c3cnc(OCCO[C@H]4CCNC4)c(C(F)(F)F)c3)nc(C#N)nc21` [Example 148], for which the IC50 worked out at 2.8 nM.
For `CN1CCC[C@H]1C(=O)N1CCC(OCCOc2ncc(-c3nc(C#N)nc4c3ccn4C)cc2C(F)(F)F)CC1` [Example 149], the IC50 was determined as 2.7 nM.
In the case of `CN1CCC[C@H]1C(=O)N1CC[C@H](OCCOc2ncc(-c3nc(C#N)nc4c3ccn4C)cc2C(F)(F)F)C1` [Example 150], the IC50 worked out at 1.7 nM.
Regarding `Cn1ccc2c(-c3cnc(OCC4CCNCC4)c(C(F)(F)F)c3)nc(C#N)nc21` [Example 153], the half-inhibitory concentration (IC50) was found to be 1.6 nM.
On to `Cn1ccc2c(-c3cnc(OCC4CCN(C(=O)[C@@H]5CCCN5)CC4)c(C(F)(F)F)c3)nc(C#N)nc21` [Example 154], for which the IC50 turned out to be 2.4 nM.
`Cn1ccc2c(-c3cnc(OCC4CCN(CC(C)(C)O)CC4)c(C(F)(F)F)c3)nc(C#N)nc21` [Example 155]: the half-inhibitory concentration (IC50) was 1.5 nM.
Take `CC(C)N1CCC[C@H]1C(=O)N1CCC(COc2ncc(-c3nc(C#N)nc4c3ccn4C)cc2C(F)(F)F)CC1` [Example 156]: the half-maximal inhibitory concentration (IC50) stood at 2.4 nM.
For the molecule `CN1CCC[C@H]1C(=O)N1CC[C@@H](OCCOc2ncc(-c3nc(C#N)nc4c3ccn4C)cc2C(F)(F)F)C1` [Example 157], the 50% inhibitory concentration (IC50) turned out to be 2.1 nM.
For the molecule `Cn1ccc2c(-c3cnc(OCC4CCN(C(=O)C5CCNCC5)CC4)c(C(F)(F)F)c3)nc(C#N)nc21` [Example 159], the IC50 was found to be 2.7 nM.
Turning to `Cn1ccc2c(-c3cnc(OCC4CCN(C(=O)C5CCN(C6CCOCC6)CC5)CC4)c(C(F)(F)F)c3)nc(C#N)nc21` [Example 160], the half-maximal inhibitory concentration (IC50) was found to be 2.4 nM.

For the next experiment, the system named is MHC class II expression in B220 positive B cells of mouse spleen cells. Nature of the experiment: In vitro MHC class II expression inhibitory effect using mouse spleen cells (LPS-stimulated B cells, flow cytometry). In kind it is cell-based, C57BL/6 mice. The settings on record: B-cell, C57BL/6 spleen cells, LPS 2 μg/mL, 48 hours, B220 positive B cells, read-out: IC50 value of MHC class II expression inhibition (Data 2). As to the method: Test Example 2 Evaluation of In Vitro MHC Class II Expression Inhibitory Effect Using Mouse Spleen Cells (Cell Evaluation System)
In antigen-presenting cells, the inhibition of cathepsin S inhibits the expression of MHC class II molecules. […] For an increased expression of MI-IC class II in B cells, the inhibitory effect of the compound represented by formula (I) was examined.
First, spleen cells collected from C57BL/6 mice were seeded in a 96-well plate so as to be a 1×10^5 cells/well, then, 5-fold dilution of 10 mM DMSO solution of the test compound was serially performed with RPMI 1640 medium (including 10% fetal bovine serum (FCS), 5×10^−5 M 2-mercaptoethanol, 50 IU/mL penicillin and 50 μg/mL streptomycin) nine times such that the final concentration becomes 0.026 nM to 10 μM, and the resultant products were added thereto (the final DMSO concentration was 0.1%). At the same time, LPS (Sigma L4005) was added to the wells such that the final concentration becomes 2 μg/mL, and culture was performed at 37° C. for 48 hours in 5% CO2. After culturing, the cells were stained at 4° C. for 20 minutes with PE-labeled streptavidin (BD BIOSCIENCE 554061) and biotin-labeled YAe antibody (EBIOSCIENCE 13-5741-85) together with FITC-labeled anti-mouse B220 antibody (BD BIOSCIENCE 553088), and an expression level (fluorescence intensity of YAe-biotin/streptavidin-PE) of MHC class II to which Ea peptide in B220 positive B cells was bonded was measured using a flow cytometry system (Guava EasyCyte Plus System, manufactured by Millipore Corporation). A value at the time of unstimulation of LPS in which the test compound was not added and a value at the time of stimulation of LPS in which the test compound was not added were set to 100% inhibition and 0% inhibition, respectively, then, an inhibition rate at each concentration was determined, and IC50 values were calculated by a linear regression method. In the Table, Ex represents Example compound No., and Data 2 represents an IC50 value (nM).
For the molecule `Cn1cnc2c(-c3ccc(OCCC4CCNCC4)c(C(F)(F)F)c3)nc(C#N)nc21` [Example 19], the 50% inhibitory concentration (IC50) is 0.7 nM.
For `CN(C)C(=O)CN1CCC(CCOc2ccc(-c3nc(C#N)nc4c3ccn4CCO)cc2C(F)(F)F)CC1` [Example 21], the IC50 was found to be 1 nM.
Same read-out and setting: the result for `N#Cc1nc(-c2ccc(OCCC3CCNCC3)c(C(F)(F)F)c2)c2ccn(CC3CCOC3)c2n1` (centres unmarked) [Example 23] reads 3 nM; that for `Cn1cnc2c(-c3ccc(OCCC4CCN(CCO)CC4)c(C(F)(F)F)c3)nc(C#N)nc21` [Example 24], 0.8 nM; that for `CCN1CCC(CCOc2ccc(-c3nc(C#N)nc4c3ncn4C)cc2C(F)(F)F)CC1` [Example 26], 0.61 nM.
For the molecule `CCN1CCC(CCOc2ncc(-c3nc(C#N)nc4c3ccn4C)cc2C(F)(F)F)CC1` [Example 27], the half-inhibitory concentration (IC50) worked out at 1.3 nM.
Still for that read-out and setting: the result for `CN1CCC[C@H]1C(=O)N1CCC(CCOc2ccc(-c3nc(C#N)nc4c3ncn4C)cc2C(F)(F)F)CC1` [Example 29] reads 0.66 nM; that for `CN1CCC[C@H]1C(=O)N1CCC(CCOc2ccc(-c3nc(C#N)nc4c3ccn4CC3CCOC3)cc2C(F)(F)F)CC1` (some centres unmarked) [Example 30], 0.97 nM; that for `CN1CCC[C@H]1C(=O)N1CCC(CCOc2ncc(-c3nc(C#N)nc4c3ncn4C)cc2C(F)(F)F)CC1` [Example 40], 0.85 nM.
